Measurements reported in patent publication US12660819B2, “Herbicidal derivatives” (SYNGENTA CROP PROTECTION AG, priority 2020, dated 2026).

Legend:
Type in all cases: in vivo
[1] = test system: Zea mays (ZEAMX); assay: Pre-emergence Test (glasshouse, percentage damage to the plant); details: 1000 g/ha unless otherwise stated, five-point scale
[2] = test system: Ipomoea hederacea (IPOHE); assay: Post-emergence Test (glasshouse, percentage damage to the plant); details: post-emergence spray, 1000 g/ha unless otherwise stated, evaluated after 13 days
Method in brief: (§1)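 Seeds sown in standard soil in a glasshouse (24/16 °C day/night, 14 h light, 65% humidity), then sprayed with an aqueous solution of the compound formulated in acetone/water 50:50 with 0.5% Tween 20 at 1000 g/ha unless otherwise stated. Percentage damage was scored after 13 days on a five-point scale (5=81-100%; 1=0-20%).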

[3] = test system: Echinochloa crus-galli (ECHCG); assay: as above; details: post-emergence spray, 1000 g/ha unless otherwise stated, evaluated after 13 days
Method in brief: (§2)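 After sowing in standard soil, pots were kept at 24/16 °C (day/night), 14 h light and 65% humidity. They were sprayed at 1000 g/ha unless otherwise stated, watered twice daily, and assessed for percentage damage at 13 days on a 1–5 scale.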

[4] = test system: Zea mays (ZEAMX); assay: as above; details: post-emergence spray, 1000 g/ha unless otherwise stated, evaluated after 13 days
Method in brief: as §1

[5] = test system: Abutilon theophrasti (ABUTH); assay: as above; details: post-emergence spray, 1000 g/ha unless otherwise stated, evaluated after 13 days
Method in brief: as §2

[6] = test system: Amaranthus retoflexus (AMARE); assay: as above; details: post-emergence spray, 1000 g/ha unless otherwise stated, evaluated after 13 days
Method in brief: as §2

[7] = test system: Setaria faberi (SETFA); assay: as above; details: post-emergence spray, 1000 g/ha unless otherwise stated, evaluated after 13 days
Method in brief: as §1

[8] = test system: Amaranthus retoflexus (AMARE); assay: Pre-emergence Test (glasshouse, percentage damage to the plant); details: 1000 g/ha unless otherwise stated, five-point scale
[9] = test system: Setaria faberi (SETFA); assay: as above; details: 1000 g/ha unless otherwise stated, five-point scale
[10] = test system: Ipomoea hederacea (IPOHE); assay: as above; details: 1000 g/ha unless otherwise stated, five-point scale
[11] = test system: Abutilon theophrasti (ABUTH); assay: as above; details: 1000 g/ha unless otherwise stated, five-point scale
[12] = test system: Echinochloa crus-galli (ECHCG); assay: as above; details: 1000 g/ha unless otherwise stated, five-point scale

SMILES | percentage damage to the plant, ZEAMX [1] | Post-emergence Test IPOHE, percentage damage to the plant (five-point scale) [2] | Post-emergence Test ECHCG, percentage damage to the plant (five-point scale) [3] | Post-emergence Test ZEAMX, percentage damage to the plant (five-point scale) [4] | Post-emergence Test ABUTH, percentage damage to the plant (five-point scale) [5] | Post-emergence Test AMARE, percentage damage to the plant (five-point scale) [6] | Post-emergence Test SETFA, percentage damage to the plant (five-point scale) [7] | percentage damage to the plant, AMARE [8] | percentage damage to the plant, SETFA [9] | percentage damage to the plant, IPOHE [10] | percentage damage to the plant, ABUTH [11] | percentage damage to the plant, ECHCG [12]
CCn1c(C)c(-c2cc(F)cc(C#N)c2)c(=O)c(C(=O)O)c1-c1ccc(Cl)c(Cl)c1 [Compound 78, 5-(3-cyano-5-fluoro-phenyl)-2-(3,4-dichlorophenyl)-1-ethyl-6-methyl-4-oxo-pyridine-3-carboxylic acid] | 1 (1=0-20%) | 1 (1=0-20%) | 2 (2=21-40%) | 1 (1=0-20%) | 2 (2=21-40%) | 1 (1=0-20%) | 3 (3=41-60%) | 2 (2=21-40%) | 4 (4=61-80%) | 2 (2=21-40%) | 1 (1=0-20%) | 3 (3=41-60%)
CCOC(=O)c1c(-c2ccc(Br)c(F)c2)n(CC)c(C)c(-c2ccc(Cl)cc2)c1=O [Compound 139, ethyl 2-(4-bromo-3-fluoro-phenyl)-5-(4-chlorophenyl)-1-ethyl-6-methyl-4-oxo-pyridine-3-carboxylate] | 0 | 1 (1=0-20%) | 2 (2=21-40%) | 2 (2=21-40%) | 4 (4=61-80%) | 3 (3=41-60%) | 3 (3=41-60%) | 0 | 0 | 0 | 0 | 0
CCn1c(C)c(-c2ccnnc2)c(=O)c(C(=O)O)c1-c1ccc(Cl)cc1 [Compound 180, 2-(4-chlorophenyl)-1-ethyl-6-methyl-4-oxo-5-pyridazin-4-yl-pyridine-3-carboxylic acid] | 0 | 2 (2=21-40%) | 0 | 0 | 0 | 0 | 0 | 0 | 0 | 0 | 0 | 0
CCn1c(C)c(-c2cc(Cl)cc(C(F)(F)F)c2)c(=O)c(C(=O)O)c1-c1ccc(Cl)c(Cl)c1 [Compound 82, 5-[3-chloro-5-(trifluoromethyl)phenyl]-2-(3,4-dichlorophenyl)-1-ethyl-6-methyl-4-oxo-pyridine-3-carboxylic acid] | 1 (1=0-20%) | 1 (1=0-20%) | 1 (1=0-20%) | 1 (1=0-20%) | 2 (2=21-40%) | 1 (1=0-20%) | 1 (1=0-20%) | 2 (2=21-40%) | 2 (2=21-40%) | 1 (1=0-20%) | 1 (1=0-20%) | 1 (1=0-20%)
CCn1c(C)c(-c2ccc(Cl)s2)c(=O)c(C(=O)O)c1-c1ccc(Cl)c(Cl)c1 [Compound 63, 5-(5-chloro-2-thienyl)-2-(3,4-dichlorophenyl)-1-ethyl-6-methyl-4-oxo-pyridine-3-carboxylic acid] | 1 (1=0-20%) | 3 (3=41-60%) | 4 (4=61-80%) | 3 (3=41-60%) | 3 (3=41-60%) | 3 (3=41-60%) | 3 (3=41-60%) | 4 (4=61-80%) | 3 (3=41-60%) | 2 (2=21-40%) | 2 (2=21-40%) | 1 (1=0-20%)
CCn1c(C)c(-c2ccc(F)c(F)c2)c(=O)c(C(=O)O)c1-c1ccc(Cl)c(Cl)c1 [Compound 104, 2-(3,4-dichlorophenyl)-5-(3,4-difluorophenyl)-1-ethyl-6-methyl-4-oxo-pyridine-3-carboxylic acid] | 1 (1=0-20%) | 1 (1=0-20%) | 3 (3=41-60%) | 1 (1=0-20%) | 3 (3=41-60%) | 3 (3=41-60%) | 4 (4=61-80%) | 4 (4=61-80%) | 4 (4=61-80%) | 1 (1=0-20%) | 2 (2=21-40%) | 2 (2=21-40%)
CCn1c(C)c(-c2cccc(C(F)(F)F)c2)c(=O)c(C(=O)O)c1-c1ccc(Cl)c(Cl)n1 [Compound 150, 2-(5,6-dichloro-2-pyridyl)-1-ethyl-6-methyl-4-oxo-5-[3-(trifluoromethyl)phenyl] pyridine-3-carboxylic acid] | 1 (1=0-20%) | 2 (2=21-40%) | 1 (1=0-20%) | 1 (1=0-20%) | 0 | 0 | 1 (1=0-20%) | 0 | 0 | 0 | 0 | 0
CCn1c(C)c(-c2ccc(Cl)cc2)c(=O)c(C(=O)O)c1-c1ccc(F)cc1F [Compound 130, 5-(4-chlorophenyl)-2-(2,4-difluorophenyl)-1-ethyl-6-methyl-4-oxo-pyridine-3-carboxylic acid] | 3 (3=41-60%) | 3 (3=41-60%) | 3 (3=41-60%) | 2 (2=21-40%) | 3 (3=41-60%) | 3 (3=41-60%) | 4 (4=61-80%) | 3 (3=41-60%) | 5 (5=81-100%) | 3 (3=41-60%) | 3 (3=41-60%) | 4 (4=61-80%)
CCn1c(C)c(-c2ccc(OC)c(C(F)(F)F)c2)c(=O)c(C(=O)O)c1-c1ccc(Cl)c(Cl)c1 [Compound 81, 2-(3,4-dichlorophenyl)-1-ethyl-5-[4-methoxy-3-(trifluoromethyl)phenyl]-6-methyl-4-oxo-pyridine-3-carboxylic acid] | 1 (1=0-20%) | 2 (2=21-40%) | 3 (3=41-60%) | 1 (1=0-20%) | 3 (3=41-60%) | 2 (2=21-40%) | 3 (3=41-60%) | 1 (1=0-20%) | 4 (4=61-80%) | 1 (1=0-20%) | 1 (1=0-20%) | 1 (1=0-20%)
CCn1c(C)c(-c2ccc(COC)cc2)c(=O)c(C(=O)O)c1-c1ccc(Cl)c(Cl)c1 [Compound 111, 2-(3,4-dichlorophenyl)-1-ethyl-5-[4-(methoxymethyl)phenyl]-6-methyl-4-oxo-pyridine-3-carboxylic acid] | 3 (3=41-60%) | 2 (2=21-40%) | 3 (3=41-60%) | 2 (2=21-40%) | 4 (4=61-80%) | 2 (2=21-40%) | 4 (4=61-80%) | 1 (1=0-20%) | 5 (5=81-100%) | 1 (1=0-20%) | 2 (2=21-40%) | 4 (4=61-80%)
